Source: patent US12384776B2, “Compounds and uses thereof” (Foghorn Therapeutics Inc., priority 2019, dated 2025)

Target: Nanoluciferase-BRD9 fusion protein (3×FLAG-NLuc-BRD9) in SYO-1 cells (Homo sapiens (Human), UniProt Q9H8M2)
Test: SYO1 BRD9 NanoLuc degradation assay
Format: cell-based
Conditions: SYO-1 cells expressing 3×FLAG-NLuc-BRD9, 6 hours incubation, top dose 1 μM
How it was run: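 Stable SYO-1 line expressing 3×FLAG-NLuc-BRD9, treated with 10-point 3-fold dilutions (top 1 μM final) for 6 hours. Nanoluciferase luminescence read with Nano-Glo reagent. % inhibition relative to DMSO (high control) and 1 μM reference BRD9 degrader (low control).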

Nanoluciferase-BRD9 fusion protein (3×FLAG-NLuc-BRD9) in SYO-1 cells, sequence (Q9H8M2 whole entry, the tested form may be a part): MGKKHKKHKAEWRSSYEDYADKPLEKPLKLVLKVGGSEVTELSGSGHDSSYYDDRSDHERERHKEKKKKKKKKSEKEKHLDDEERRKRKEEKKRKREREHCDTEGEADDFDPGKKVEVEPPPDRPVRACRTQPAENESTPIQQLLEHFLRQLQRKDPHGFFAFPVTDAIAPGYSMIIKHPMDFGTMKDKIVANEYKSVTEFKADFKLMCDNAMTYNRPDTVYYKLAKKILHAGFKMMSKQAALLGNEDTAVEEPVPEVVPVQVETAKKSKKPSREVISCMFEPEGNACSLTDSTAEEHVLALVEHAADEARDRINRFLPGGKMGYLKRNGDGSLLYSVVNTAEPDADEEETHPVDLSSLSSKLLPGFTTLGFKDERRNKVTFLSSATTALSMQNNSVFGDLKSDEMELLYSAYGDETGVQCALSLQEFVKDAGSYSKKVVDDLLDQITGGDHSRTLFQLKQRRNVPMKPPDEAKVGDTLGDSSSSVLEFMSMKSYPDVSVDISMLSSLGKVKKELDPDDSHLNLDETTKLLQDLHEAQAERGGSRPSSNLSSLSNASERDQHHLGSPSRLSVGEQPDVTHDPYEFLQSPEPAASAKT

IC50 [nM]	Compound
< 10	CNC(=O)N1CCc2c(-c3cc(OC)c(CN4CCC(CN5CCN(c6ccc7c(c6)C(=O)N(C6CCC(=O)NC6=O)C7=O)CC5)CC4)c(OC)c3)cn(C)c(=O)c2C1 (stereo not drawn) [Compound D256]
< 10	CNC(=O)N1CCc2c(-c3cc(OC)c(CN4CCC(CCN(C)C5CN(c6ccc7c(c6)C(=O)N(C6CCC(=O)NC6=O)C7=O)C5)CC4)c(OC)c3)cn(C)c(=O)c2C1 (stereo not drawn) [Compound D171]
10 to 100	COc1cc(-c2cn(C)c(=O)c3c2CCN(C(=O)NCCN2CCC(C4CCN(c5ccc6c(c5)C(=O)N(C5CCC(=O)NC5=O)C6=O)CC4)C2)C3)cc(OC)c1CN(C)C (stereo not drawn) [Compound D205]
< 10	CNC(=O)N1CCc2c(-c3cc(OC)c(CN4CCC(CCN(C)C5CCCN(c6ccc7c(c6)C(=O)N(C6CCC(=O)NC6=O)C7=O)C5)CC4)c(OC)c3)cn(C)c(=O)c2C1 (stereo not drawn) [Compound D173]
< 10	CNC(=O)N1CCc2c(-c3cc(OC)c(CN4CCC(CCN5CC6CC5CN6c5ccc6c(c5)C(=O)N(C5CCC(=O)NC5=O)C6=O)CC4)c(OC)c3)cn(C)c(=O)c2C1 (stereo not drawn) [Compound D172]
< 10	CNC(=O)N1CCc2c(-c3cc(OC)c(CN4CCC(CCN5CC6CN(c7ccc8c(c7)C(=O)N(C7CCC(=O)NC7=O)C8=O)CC6C5)CC4)c(OC)c3)cn(C)c(=O)c2C1 (stereo not drawn) [Compound D196]
≥ 1000	COc1cc(-c2cn(C)c(=O)c3c2CCN(C(=O)NC2CC4(C2)CN(CCCCN2CCN(c5ccc6c(c5)C(=O)N(C5CCC(=O)NC5=O)C6=O)CC2)C4)C3)cc(OC)c1CN(C)C (stereo not drawn) [Compound D230]
< 10	[2H]C([2H])([2H])NC(=O)N1CCc2c(-c3cc(OC)c(CN4CCN(CCC5CCN(c6ccc7c(c6)C(=O)N(C6CCC(=O)NC6=O)C7=O)CC5)CC4)c(OC)c3)cn(C)c(=O)c2C1 (stereo not drawn) [Compound D48]
100 to 1000	COc1cc(-c2cn(C)c(=O)c3c2CCN(C(=O)NCC2CC24CCN(CCCCN2CCN(c5ccc6c(c5)C(=O)N(C5CCC(=O)NC5=O)C6=O)CC2)CC4)C3)cc(OC)c1CN(C)C (stereo not drawn) [Compound D240]
< 10	CNC(=O)N1CCc2c(-c3cc(OC)c(CC4CCN(CCN5CCN(c6ccc7c(c6)C(=O)N(C6CCC(=O)NC6=O)C7=O)CC5)CC4)c(OC)c3)cn(C)c(=O)c2C1 (stereo not drawn) [Compound D130]
< 10	CNC(=O)N1CCc2c(-c3cc(OC)c(CN4C[C@@H](C)N(CCC5CCN(c6ccc7c(c6)C(=O)N(C6CCC(=O)NC6=O)C7=O)CC5)[C@@H](C)C4)c(OC)c3)cn(C)c(=O)c2C1 (stereo partly drawn) [Compound D42]
100 to 1000	COc1cc(-c2cn(C)c(=O)c3c2CCN(C(=O)NCC2CC4CN(CCCOc5ccc6c(c5)C(=O)N(C5CCC(=O)NC5=O)C6=O)CC4C2)C3)cc(OC)c1CN(C)C (stereo not drawn) [Compound D265]
≥ 1000	COc1cc(-c2cn(C)c(=O)c3c2CCN(C(=O)NC2CC4CC2CN4CCCCN2CCN(c4ccc5c(c4)C(=O)N(C4CCC(=O)NC4=O)C5=O)CC2)C3)cc(OC)c1CN(C)C (stereo not drawn) [Compound D243]
< 10	CNC(=O)N1CCc2c(-c3cc(OC)c(CN4CC5CC4CC5CCN4CCN(c5ccc6c(c5)C(=O)N(C5CCC(=O)NC5=O)C6=O)CC4)c(OC)c3)cn(C)c(=O)c2C1 (stereo not drawn) [Compound D138]

Continued, molecule first:

Compound	IC50 [nM]
CNC(=O)N1CCc2c(c(-c3cc(OC)c(CN(C)CC(=O)NCCOCCOc4cccc5c4C(=O)N(C4CCC(=O)NC4=O)C5=O)c(OC)c3)cn(C)c2=O)C1 (stereo not drawn) [Compound D297]	≥ 1000
CNC(=O)N1CCc2c(-c3cc(OC)c(CN4CCC(CCN5CCN(C67CC8CC(CC(C8)C6)C7)CC5)CC4)c(OC)c3)cn(C)c(=O)c2C1 [Compound D74]	≥ 1000
CNC(=O)N1CCc2c(c(-c3cc(OC)c(CN(C)CCOCCN4CCN(c5ccc6c(c5)C(=O)N(C5CCC(=O)NC5=O)C6=O)CC4)c(OC)c3)cn(C)c2=O)C1 (stereo not drawn) [Compound D296]	≥ 1000
CNC(=O)N1CCc2c(-c3cc(OC)c(CN4CCC(CCN5CCN(c6cc7c(cc6F)C(=O)N(C6CCC(=O)NC6=O)C7=O)CC5)CC4)c(OC)c3)cn(C)c(=O)c2C1 (stereo not drawn) [Compound D88]	< 10
[2H]C([2H])([2H])NC(=O)N1CCc2c(-c3cc(OC)c(CN4CCC(CN5CCC6(CC5)CC(Oc5ccc7c(c5)C(=O)N(C5CCC(=O)NC5=O)C7=O)C6)CC4)c(OC)c3)cn(C)c(=O)c2C1 (stereo not drawn) [Compound D47]	< 10
COc1cc(-c2cn(C)c(=O)c3c2CCN(C(=O)NCC2CC24CCN(CCOc2ccc5c(c2)C(=O)N(C2CCC(=O)NC2=O)C5=O)CC4)C3)cc(OC)c1CN(C)C (stereo not drawn) [Compound D269]	10 to 100
CNC(=O)N1CCc2c(-c3cc(F)c(CN4CCC(CCN5CCN(c6ccc7c(c6)C(=O)N(C6CCC(=O)NC6=O)C7=O)CC5)CC4)c(OC)c3)cn(C)c(=O)c2C1 (stereo not drawn) [Compound D91]	< 10
CNC(=O)N1CCc2c(-c3cc(OC)c(CNC4CC45CCN(c4ccc6c(c4)C(=O)N(C4CCC(=O)NC4=O)C6=O)C5)c(OC)c3)cn(C)c(=O)c2C1 (stereo not drawn) [Compound D156]	< 10
CNC(=O)N1CCc2c(-c3cc(OC)c(CN4CC5(CC(N6Cc7cc8c(cc7C6)C(=O)N(C6CCC(=O)NC6=O)C8=O)C5)C4)c(OC)c3)cn(C)c(=O)c2C1 (stereo not drawn) [Compound D177]	10 to 100
CNC(=O)N1CCc2c(-c3cc(OC)c(CN4CCC(CCN5CCN(c6ccc7c(c6)C(=O)N(C6CCC(=O)NC6=O)C7)CC5)CC4)c(OC)c3)cn(C)c(=O)c2C1 (stereo not drawn) [Compound D69]	< 10
CNC(=O)N1CCc2c(-c3cc(OC)c(CN4CCC(CCN5CCN(c6c(F)cc7c(c6F)C(=O)N(C6CCC(=O)NC6=O)C7=O)CC5)CC4)c(OC)c3)cn(C)c(=O)c2C1 (stereo not drawn) [Compound D78]	< 10
CNC(=O)N1CCc2c(-c3cc(OC)c(CN4CCC(CN(C(C)C)C5CC(Oc6ccc7c(c6)C(=O)N(C6CCC(=O)NC6=O)C7=O)C5)CC4)c(OC)c3)cn(C)c(=O)c2C1 (stereo not drawn) [Compound D125]	< 10
CNC(=O)N1CCc2c(-c3cc(OC)c(CN4CCC(CCN5CCN(c6ccc7c(c6)C(=O)N(C6CCC(=O)NC6=O)C7=O)CC5)CC4)c(OC)c3)cn(C3CC3)c(=O)c2C1 (stereo not drawn) [Compound D118]	< 10
COc1cc(-c2cn(C)c(=O)c3c2CCN(C(=O)NCC2CC4(CCN(CCOc5ccc6c(c5)C(=O)N(C5CCC(=O)NC5=O)C6=O)CC4)CO2)C3)cc(OC)c1CN(C)C (stereo not drawn) [Compound D259]	10 to 100
CNC(=O)N1CCc2c(-c3cc(OC)c(CN4CCOC(CCCN5CCN(c6ccc7c(c6)C(=O)N(C6CCC(=O)NC6=O)C7=O)CC5)C4)c(OC)c3)cn(C)c(=O)c2C1 (stereo not drawn) [Compound D151]	< 10
CNC(=O)N1CCc2c(-c3cc(OC)c(CN4CCC(CCN5CCN(c6ccc7nc(C)n(C8CCC(=O)NC8=O)c(=O)c7c6)CC5)CC4)c(OC)c3)cn(C)c(=O)c2C1 (stereo not drawn) [Compound D65]	100 to 1000
COc1cc(-c2cn(C)c(=O)c3c2CCN(C(=O)NC2CC4(CCN(CCOc5ccc6c(c5)C(=O)N(C5CCC(=O)NC5=O)C6=O)C4)C2)C3)cc(OC)c1CN(C)C (stereo not drawn) [Compound D228]	10 to 100
COc1cc(-c2cn(C)c(=O)c3c2CCN(C(=O)NCC2CC4(C2)CN(CCOc2ccc5c(c2)C(=O)N(C2CCC(=O)NC2=O)C5=O)C4)C3)cc(OC)c1CN(C)C (stereo not drawn) [Compound D268]	10 to 100
CNC(=O)N1CCc2c(-c3cc(CN4CCC(CCN5CCN(c6ccc7c(c6)C(=O)N(C6CCC(=O)NC6=O)C7=O)CC5)CC4)cc(OC)c3)cn(C)c(=O)c2C1 (stereo not drawn) [Compound D79]	≥ 1000
CNC(=O)N1CCc2c(-c3cc(OC)c(CN4CCC(CCN5CCC(c6ccc7c(c6)C(=O)N(C6CCC(=O)NC6=O)C7=O)CC5)CC4)c(OC)c3)cn(C)c(=O)c2C1 (stereo not drawn) [Compound D113]	< 10
COc1cc(-c2cn(C)c(=O)c3c2CCN(C(=O)NCC2CC4(CCN(CCOc5ccc6c(c5)C(=O)N(C5CCC(=O)NC5=O)C6=O)CC4)O2)C3)cc(OC)c1CN(C)C (stereo not drawn) [Compound D213]	100 to 1000

Same assay, conditions: SYO-1 cells, 6 hours, Table 6A

IC50 [nM]	Compound
> 100	COc1cc(-c2cn(C)c(=O)c3c2CCN(C(=O)NCCN(C)CCNc2cccc4c2C(=O)N(C2CCC(=O)NC2=O)C4=O)C3)cc(OC)c1CN(C)C (stereo not drawn) [Compound D6, 5-[4-[(dimethylamino)methyl]-3,5-dimethoxyphenyl]-N-[2-[(2-[[2-(2,6-dioxopiperidin-3-yl)-1,3-dioxoisoindol-4-yl]amino]ethyl)(methyl)amino]ethyl]-7-methyl-8-oxo-3,4-dihydro-1H-2,7-naphthyridine-2-carboxamide]

Same assay, conditions: SYO-1 cells, 6 hours, Table 6C

IC50 [nM]	Compound
< 10	COc1cc(-c2cn(C)c(=O)c3c2CCC3)cc(OC)c1CN1CCC2(CC1)CN(c1ccc3c(c1)C(=O)N(C1CCC(=O)NC1=O)C3=O)C2 (stereo not drawn) [Compound D363]
< 10	CNC(=O)N1CCc2c(-c3cc(OC)c(CN4CCC5(CC4)CN(c4ccc6c(c4)C(=O)N(C4CCC(=O)NC4=O)C6)C5)c(OC)c3)cn(C)c(=O)c2C1 (stereo not drawn) [Compound D308]
< 10	COc1cc(-c2cn(C)c(=O)c3c2CCN(C(=O)NCC(F)F)C3)cc(OC)c1CN1CCN(CCC2CCN(c3ccc4c(c3)CN(C3CCC(=O)NC3=O)C4=O)CC2)CC1(C)C (stereo not drawn) [Compound D320]
≥ 1000	[2H]C([2H])([2H])n1cc(-c2cc(OC)c(CN3CCN(CCC4CCN(c5ccc6c(c5)C(=O)N(C5CCC(=O)NC5=O)C6=O)CC4)CC3)c(OC)c2)c2c(c1=O)CN(C(=O)NCC(F)F)CC2 (stereo not drawn) [Compound D328]
< 10	COc1cc(-c2cn(C)c(=O)c3c2CCC3)cc(OC)c1CN1CCC(C#Cc2ccc3c(c2)C(=O)N(C2CCC(=O)NC2=O)C3)CC1 (stereo not drawn) [Compound D371]
≥ 10	COc1cc(-c2cn(C)c(=O)c3c2CN(C(=O)F)CC3)cc(OC)c1CN1CC(CN2CCC3(CC2)CN(c2ccc4c(c2)C(=O)N(C2CCC(=O)NC2=O)C4)C3)C1 (stereo not drawn) [Compound D349]
< 10	COc1cc(-c2cn(C)c(=O)c3c2NCC3)cc(OC)c1CN1CC(CN2CCC3(CC2)CN(c2ccc4c(c2)C(=O)N(C2CCC(=O)NC2=O)C4)C3)C1 (stereo not drawn) [Compound D350]
< 10	CNC(=O)N1CCc2c(-c3cc(OC)c(CN4CCC5(CN(c6ccc7c(c6)C(=O)N(C6CCC(=O)NC6=O)C7)C5)C(C)C4)c(OC)c3)cn(C)c(=O)c2C1 (stereo not drawn) [Compound D304]
< 10	COc1cc(-c2cn(C)c(=O)c3c2CCCN3)cc(OC)c1CN1CCC2(CC1)CN(c1ccc3c(c1)CN(C1CCC(=O)NC1=O)C3=O)C2 (stereo not drawn) [Compound D360]
